For assay [1], the system named is TSC1+/− human neuronal SH-SY5Y cells. Kind of assay: TAU, phosphorylated-TAU, insoluble tau and viability in TSC1 mutant SH-SY5Y neuronal cells. The assay is classed as cell-based. The procedure:
FIG. 8 A) Representative Western blot analysis of detergent-insoluble tau levels in control versus three independent TSC1-mutant SY5Y cell lines (A1, A3, A3A9) treated with 10 μM C1 (AIC106) versus vehicle. FIG. 8B) Quantitation of insoluble tau levels in control (Emty) versus mutant TSC1 lines treated with C1 (AIC106) versus vehicle (−). Values represent fold change versus vehicle-treated controls, *p<0.01.
FIG. 23, panels A-H: FXR modulation enhances HLH-30 expression in human neuronal SH-SY5Y cells. Panel A) Effects of AIC106 on human FXR activity was determined in a mammalian one-hybrid based kit assay by quantifying changes in the luciferase activity of FXR ligand (GW4064, GW) induced treatment. [N=3 independent experiments (mean±SD). ****p<0.0001, by one-way ANOVA with Tukey's multiple comparisons test]. Panel B) Protein expression of TFEB, cathepsin-D (CAT-D) and small heterodimer partner-1 (SHP-1) was determined by immunoblot in neuronal SH-SY5Y cells post-24 hours of treatment with AIC106 and DMSO-control. Panel C) AIC106 enhances autophagic flux in neuronal SH-SY5Y cells. Autophagic flux in DMSO-control and AIC106 treated neuronal cells was determined by quantifying levels of autophagosome specific LC3-II protein both in presence and absence of autophagy inhibitor bafliomycin A1 (Baf A, 10 nM). Panel D) Relative fold change in the band intensity of LC3-II protein, normalized to loading control actin. Values are relative to DMSO-control. [N=3 independent experiments (mean±SD). *p<0.05 and ****p<0.0001, by one-way ANOVA with Tukey's multiple comparisons test]. Panel E) Effects of AIC106 treatment for 72 hours on basal TAU and phosphorylated-TAU in differentiated human neuronal SH-SHY5Y and heterozygous TSC1(+/−) mutant SH-SY5Y neuronal cells were quantitated by immunoblotting following total protein extraction. Relative fold change in the band intensity compared to SH-SY5Y control treatment for (panel F) total TAU and (panel G) phosphorylated-TAU, normalized to loading control GAPDH. [N=3 independent experiments (mean±SD). *p<0.05 and **p<0.01, by one-way ANOVA with Sidak's multiple comparisons test]. Panel H) AIC106 treatment improves viability and health of differentiated SH-SY5Y-TSC1(+/−) neuronal cells. Images were taken post-96 hours after treatment of differentiated neuronal cells with AIC106.
The rat dopaminergic cell line 1RB3AN27 (N27) was grown in RPMI 1640 medium supplemented with 10% fetal calf serum (Invitrogen), 100 U/ml penicillin, and 100 μg/ml streptomycin. SH-SY5Y TSC1+/− lines were generated as described previously (Olney et al., 2017). […]

Another assay has as its system TFEB. Kind of assay: qRT-PCR of tfeb and its targets in N27 neuronal cells. The assay is classed as cell-based, rat. The procedure:
FIG. 18, panels A-F: AIC106 (Autophagy Inducing Coumarin-106) induces transcription of TFEB and its targets in vitro in rat N27 neuronal cells and in vivo in C. elegans. Panel A) Relative fold change in TFEB promoter activity compared to DMSO-control was determined by quantifying luciferase activity in supernatants collected from rat N27 neuronal cells post-24 hour treatment with C1 (AIC106), D1 and D2. [n=3 independent experiments (mean±SEM), **p<0.01, by one-way ANOVA with Dunnett's multiple comparisons test]. Panel B) Chemical structure of AIC106 and its structural derivative D1 and D2. Panel C) Relative fold change in mRNA of tfeb and its targets compared to DMSO-control were quantified using qRT-PCR in N27 neuronal cells post-24 hour treatment with AIC106 [N=3 independent experiments (mean±SD). *p<0.05, **p<0.01 and ****p<0.0001, by two-way ANOVA with Sidak's multiple comparisons test]. Panel D) Changes in HLH-30 expression were measured by quantifying GFP intensity in an individual GFP-tagged HLH-30 strain (MAH235) post-24 hours treatment with AIC106 and DMSO-control. […] Panel E) HLH-30; GFP (MAH235) were monitored by fluorescence microscopy. Panel F) Relative fold change in mRNA of hlh-30 and its targets compared to DMSO-control were quantified using qRT-PCR in young adult wild type N2 worms post-24 hours treatment with AIC106. […]
For orientation: Real-time PCR tracks product formation cycle by cycle.

The mark [2] stands for this setting: TSC1+/− SH-SY5Y cells, 72 hours.

Turning to `O=c1oc2c3c4c(cc2c2c1CCC2)CCCN4CCC3` [C1, 2,3,6,7,10,11-Hexahydro-1H,5H-cyclopenta(3,4)(1)benzopyrano(6,7,8-ij)quinolizin-12(9H)-one], in assay [1] (setting [2]), the TAU levels entry is listed as “without significantly changing TAU levels” and the phosphorylated-TAU entry was “decrease of phosphorylated-TAU”. Besides, in assay [1] (TSC1-mutant SY5Y cell lines, 10 μM C1 (FIG. 8)), the insoluble tau levels result is given as “reduce levels of insoluble tau levels”. In assay [1] (differentiated TSC1+/− SH-SY5Y cells, 96 hours), the “viability and general health of differentiated cells” value is “prevented loss in viability”. The “TFEB mRNA levels” value in the assay on TFEB (24 hour treatment) is “increased TFEB mRNA levels”. Further, the “downstream TFEB target genes expression” value with TFEB (24 hour treatment (FIG. 18, panel C)) is “increased expression of downstream TFEB target genes”.
